Reference: paper PMC9221371, “Flavonoid Derivatives as Potential Cholinesterase Inhibitors in Scopolamine-Induced Amnesic Mice: An In Vitro, In Vivo and Integrated Computational Approach” (Brain Sciences, 2022)
Read-outs that look alike come from different tables or passages of the source.

Experiments:
[1] = biological target: T1, AChE (electric eel type-VI-S) (Electrophorus electricus, UniProt O42275); assay: biochemical; settings: 25 °C, triplicate
T1 construct: purchased Sigma-Aldrich (Taufkirchen, Germany)
T1 sequence (O42275 24-633): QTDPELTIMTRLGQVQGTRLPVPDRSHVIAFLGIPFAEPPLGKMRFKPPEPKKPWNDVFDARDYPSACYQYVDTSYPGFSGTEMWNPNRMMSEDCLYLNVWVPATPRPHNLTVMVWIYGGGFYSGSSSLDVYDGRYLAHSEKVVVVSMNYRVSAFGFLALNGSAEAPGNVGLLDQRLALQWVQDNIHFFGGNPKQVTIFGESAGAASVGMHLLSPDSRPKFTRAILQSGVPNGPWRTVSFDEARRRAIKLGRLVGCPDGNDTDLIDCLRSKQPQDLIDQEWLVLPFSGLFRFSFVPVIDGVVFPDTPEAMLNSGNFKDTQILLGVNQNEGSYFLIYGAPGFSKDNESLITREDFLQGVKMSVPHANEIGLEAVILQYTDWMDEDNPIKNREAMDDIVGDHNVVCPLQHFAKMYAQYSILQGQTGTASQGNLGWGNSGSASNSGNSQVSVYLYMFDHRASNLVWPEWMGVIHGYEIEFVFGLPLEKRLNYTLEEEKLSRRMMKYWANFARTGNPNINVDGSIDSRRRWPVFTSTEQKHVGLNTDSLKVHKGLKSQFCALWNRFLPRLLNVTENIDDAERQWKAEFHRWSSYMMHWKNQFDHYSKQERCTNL
Method: (§1) Synthetic flavonoids F1–F5 previously synthesized by our group were used in the study.
(§2) For the determination of acetylcholinesterase inhibitory potentials, AChE and BuChE were used. […] To the tube were added DTNB (100 µL) and buffer (2.4 mL). The tube was incubated at 25 °C for 5 min as pre-incubation. The reaction was started by adding ATChI (40 µL), and the mixture was incubated at 25 °C for 20 min. The absorbance at 412 nm was measured spectrophotometrically in triplicate. […] The data were recorded in triplicate, and IC50 was calculated.

[2] = biological target: T2, BuChE (equine serum lyophilized) (Equus caballus, UniProt P81908); assay: biochemical; settings: triplicate; read-out: BChE IC50 (converted)
T2 construct: purchased Sigma-Aldrich (Taufkirchen, Germany); host or cells: equine serum
T2 sequence (P81908 whole entry): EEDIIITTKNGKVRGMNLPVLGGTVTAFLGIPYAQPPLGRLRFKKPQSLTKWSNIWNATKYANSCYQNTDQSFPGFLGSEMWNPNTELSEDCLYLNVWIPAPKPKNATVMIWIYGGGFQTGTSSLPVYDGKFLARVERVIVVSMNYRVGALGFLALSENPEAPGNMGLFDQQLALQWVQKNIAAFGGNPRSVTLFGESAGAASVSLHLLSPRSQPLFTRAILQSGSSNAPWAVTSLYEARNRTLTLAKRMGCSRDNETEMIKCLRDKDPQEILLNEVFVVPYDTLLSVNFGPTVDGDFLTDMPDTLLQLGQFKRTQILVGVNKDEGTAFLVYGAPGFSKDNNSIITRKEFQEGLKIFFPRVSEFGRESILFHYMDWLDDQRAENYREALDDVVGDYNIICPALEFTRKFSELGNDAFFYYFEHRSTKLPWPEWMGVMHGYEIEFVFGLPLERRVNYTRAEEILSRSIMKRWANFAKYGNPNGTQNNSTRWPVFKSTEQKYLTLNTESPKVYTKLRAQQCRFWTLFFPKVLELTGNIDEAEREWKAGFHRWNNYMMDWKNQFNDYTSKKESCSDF
Method: as §1, §2

[3] = tested on: scopolamine-induced amnesic mice; assay: Novel object discrimination (NOD) task in scopolamine-induced amnesic model; type: in vivo, Balb/C mice; settings: scopolamine 1 mg/kg i.p., n = 8
Method: (§3) The animals in the control (normal) and scopolamine amnesic groups were administered vehicle (Tween-80, 2%) only. Treated animals received F1–F5 suspended in Tween-80 (2%) p.o. at their respective doses for a period of 4 weeks. […] For assessing behavioral effects using the Y-Maze Paradigm and novel object discrimination (NOD) task, scopolamine (1 mg/kg, i.p.) was given to the different groups, 30 min after the respective treatments, to induce memory impairment (amnesia) in mice. All of the tests were performed between 8:00 a.m. and 6:00 p.m. to avoid sham results in the performance of the animals.
(§4) Behavioral tasks on the Y-Maze Paradigm and “NOD” tasks were conducted in the 5th week of study to determine learning and memory functions. The apparatus arena was cleaned with 70% ethanol during the inter-trial interval to prevent a confounding error due to the influence of odor [20, 21].
Animals were challenged for the novel object discrimination task for F1–F5 as per previously reported protocols. After habituation and acclimatization, animals in each group had two consecutive object exploration trials (5 min each) for this test, with a break of 4 h in between two trials. In the familiarization phase (sample), the animals were challenged to explore two objects similar to each other. In the second phase (test), any of the two objects was changed by a new object. Exploration time in sec for the objects, including chewing, licking, sniffing or pointing the vibrissae of nose towards the object, was recorded. The discrimination ratio (%DI) was then determined using:(T novel object − T familiar object)/(T novel object + T familiar object) × 100(1)

[4] = tested on: scopolamine-induced amnesic mice; assay: Y-Maze Paradigm, spontaneous alternation in scopolamine-induced amnesic model; type: in vivo, Balb/C mice; settings: for Spontaneous Alternation Performance: scopolamine 1 mg/kg i.p., n = 8
Description: (§5) For assessment of acute toxicity of the flavones (F1–F5), animals (21 in number) were divided into groups of 3 animals each. The reported protocols by Lorke were followed with slight modification to perform tests in two phases. In the first phase, one (control) group of animals were given Tween-80 (2%), and oral doses of F1–F5 were given to the remaining groups, respectively, at various doses (mg/kg body weight). […] The animals were housed in plastic cages. After two weeks, the animals were sacrificed by euthanasia with isoflurane in a humane manner for assessment of the effects on total weight and weight of the vital organs. The biochemical parameters of blood and histological studies of vital organs (kidney and liver tissue) were also assessed. […] The preliminary pharmacological activity was assessed at various dose concentrations of F1–F5 (2.5–20 mg/kg b.w.) to determine the effective dose for assessment of cognitive function using animal models.
as §3, §4
The Y-Maze task is a non-invasive and reliable behavioral test that was used for memory assessment of spontaneous alternation for F1–F5 based on previously reported protocols. A single session of Y-Maze was used to record the spontaneous alternation behavior of the animals to determine exploratory behavior and instant memory functioning. The apparatus was made of three arms in a “Y” shape (35 cm × 8 cm × 15 cm) with an equilateral triangular central area. In brief, each of the mice, previously naive to the maze, was placed at the terminal end of one arm. The animals were allowed to move and explore freely for 8 min through the maze. The number of arm entries was noted. One arm entry was considered when the hind paws of the animal were completely placed inside the arm, and the series of arm entries were documented. The spontaneous alternation in percent was calculated.

Balb/C mice = assay: Acute toxicity study; type: in vivo; settings: n = 3; for ALP / AST / Creatinine / Glucose / Total Cholesterol / Triglyceride: blood; for Kidney Weight / Liver Weight / Total Weight: mice
Description: Two weeks before the experiment, the animals were acclimatized to laboratory conditions.
as §5

[5] = tested on: brains of scopolamine-induced amnesic mice; assay: Antioxidant enzyme activities and oxidative stress markers in brain homogenate; type: in vivo, Balb/C mice; settings: for GSH / MDA: n = 8
Method: as §3
(§6) The brain was extracted, and a homogenate (10% w/v) in 0.1 M of phosphate buffer (pH 7.4) was prepared by centrifugation for the assessment of brain oxidative status and estimating brain acetylcholinesterase activity. Catalase (CAT), superoxide dismutase (SOD), glutathione (GSH) and level of lipid peroxidation (malondialdehyde, MDA) were quantified as oxidative stress markers.

[6] = biological target: T3, brain acetylcholinesterase (Mus musculus, UniProt P21836); type: in vivo; parameters: unit not given here; settings: brain homogenate, n = 8
T3 construct: The brain was extracted, and a homogenate (10% w/v) in 0.1 M of phosphate buffer (pH 7.4) was prepared; from tissue; host or cells: mouse brain homogenate
T3 sequence (P21836 32-614): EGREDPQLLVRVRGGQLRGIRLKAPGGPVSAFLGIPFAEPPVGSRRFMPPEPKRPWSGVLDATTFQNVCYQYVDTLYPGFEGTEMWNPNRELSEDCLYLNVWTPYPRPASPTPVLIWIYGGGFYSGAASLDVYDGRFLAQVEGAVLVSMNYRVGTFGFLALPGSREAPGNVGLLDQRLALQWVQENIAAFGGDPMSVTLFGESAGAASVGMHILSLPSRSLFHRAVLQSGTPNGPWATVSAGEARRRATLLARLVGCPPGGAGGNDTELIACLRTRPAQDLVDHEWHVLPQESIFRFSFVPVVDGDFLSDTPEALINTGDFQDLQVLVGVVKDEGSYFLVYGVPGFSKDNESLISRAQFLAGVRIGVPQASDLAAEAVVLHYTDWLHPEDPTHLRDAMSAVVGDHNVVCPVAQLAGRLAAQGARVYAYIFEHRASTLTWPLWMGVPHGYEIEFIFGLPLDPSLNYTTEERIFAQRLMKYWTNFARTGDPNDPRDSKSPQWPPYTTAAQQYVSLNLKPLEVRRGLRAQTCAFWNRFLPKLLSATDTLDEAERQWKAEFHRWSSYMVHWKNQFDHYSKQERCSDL
Method: as §3, §6

[7] = 7.5 mg/kg b.w., n = 8, 7.5 mg/kg

`O=c1cc(-c2cc(Cl)ccc2Cl)oc2ccccc12` [Compound F5] was tested, and the IC50 [1] was 338 µM, the IC50 [2] was 376 µM and the “discrimination index (%DI)” value ([3]; 7.5 mg/kg b.w. p.o. 4 weeks) was 59.76 ± 1.24%. For the same molecule, the “discrimination index (%DI)” value ([3]; 15 mg/kg b.w. p.o. 4 weeks) was 62.12 ± 1.28%, the “Spontaneous Alternation Performance” value ([4]; 7.5 mg/kg b.w. p.o. 4 weeks) was 67.94 ± 1.51% and the “Spontaneous Alternation Performance” value ([4]; 15 mg/kg b.w. p.o. 4 weeks) was 73.11 ± 1.63%. The “Spontaneous alternation performance (preliminary, selection of doses)” value ([4]; Table S1, dose 2.5 mg/kg b.w.) was 38.63±1.78, the “Spontaneous alternation performance (preliminary, selection of doses)” value ([4]; Table S1, dose 5 mg/kg b.w.) was 43.87±1.94 and the “Spontaneous alternation performance (preliminary, selection of doses)” value ([4]; Table S1, dose 7.5 mg/kg b.w.) was 66.53±1.89. The “Spontaneous alternation performance (preliminary, selection of doses)” value ([4]; Table S1, dose 10 mg/kg b.w.) was 66.97±1.72, the “Spontaneous alternation performance (preliminary, selection of doses)” value ([4]; Table S1, dose 12.5 mg/kg b.w.) was 67.33±2.05 and the ALP (Balb/C mice; 600 mg/kg b.w. oral) was 134.41 ± 2.81 U/L. For the same molecule, the AST (Balb/C mice; 600 mg/kg b.w. oral) was 108.37 ± 1.97 U/L, the Creatinine (Balb/C mice; 600 mg/kg b.w. oral) was 0.28 ± 0.04 mg/dL and the Glucose (Balb/C mice; 600 mg/kg b.w. oral) was 86.98 ± 2.12 mg/dL. The “Total Cholesterol” value (Balb/C mice; 600 mg/kg b.w. oral) was 102.91 ± 1.93 mg/dL, the Triglyceride (Balb/C mice; 600 mg/kg b.w. oral) was 95.31 ± 2.61 mg/dL and the “Kidney Weight” value (Balb/C mice; 600 mg/kg b.w. oral) was 0.30 ± 0.21 g. The “Liver Weight” value (Balb/C mice; 600 mg/kg b.w. oral) was 1.24 ± 0.25 g, the “Total Weight” value (Balb/C mice; 600 mg/kg b.w. oral) was 20.97 ± 1.66 g and the ALP (Balb/C mice; 1000 mg/kg b.w. oral) was 135.87 ± 2.24 U/L. For the same molecule, the AST (Balb/C mice; 1000 mg/kg b.w. oral) was 107.41 ± 2.03 U/L, the Creatinine (Balb/C mice; 1000 mg/kg b.w. oral) was 0.35 ± 0.05 mg/dL and the Glucose (Balb/C mice; 1000 mg/kg b.w. oral) was 87.01 ± 2.21 mg/dL. For the same molecule, the “Total Cholesterol” value (Balb/C mice; 1000 mg/kg b.w. oral) was 103.02 ± 1.79 mg/dL, the Triglyceride (Balb/C mice; 1000 mg/kg b.w. oral) was 96.08 ± 2.01 mg/dL and the “Kidney Weight” value (Balb/C mice; 1000 mg/kg b.w. oral) was 0.31 ± 0.24 g. The “Liver Weight” value (Balb/C mice; 1000 mg/kg b.w. oral) was 1.22 ± 0.29 g, the “Total Weight” value (Balb/C mice; 1000 mg/kg b.w. oral) was 21.88 ± 1.89 g and the ALP (Balb/C mice; 2000 mg/kg b.w. oral) was 133.91 ± 3.71 U/L. It also gave an AST (Balb/C mice; 2000 mg/kg b.w. oral) of 108.39 ± 1.89 U/L, a Creatinine (Balb/C mice; 2000 mg/kg b.w. oral) of 0.33 ± 0.06 mg/dL and a Glucose (Balb/C mice; 2000 mg/kg b.w. oral) of 86.89 ± 1.98 mg/dL. The “Total Cholesterol” value (Balb/C mice; 2000 mg/kg b.w. oral) was 102.73 ± 2.10 mg/dL, the Triglyceride (Balb/C mice; 2000 mg/kg b.w. oral) was 95.37 ± 1.98 mg/dL and the “Kidney Weight” value (Balb/C mice; 2000 mg/kg b.w. oral) was 0.29 ± 0.20 g. For the same molecule, the “Liver Weight” value (Balb/C mice; 2000 mg/kg b.w. oral) was 1.26 ± 0.21 g, the “Total Weight” value (Balb/C mice; 2000 mg/kg b.w. oral) was 22.91 ± 1.67 g and the ALP (Balb/C mice; 3000 mg/kg b.w. oral) was 134.02 ± 3.28 U/L. For the same molecule, the AST (Balb/C mice; 3000 mg/kg b.w. oral) was 107.76 ± 1.92 U/L, the Creatinine (Balb/C mice; 3000 mg/kg b.w. oral) was 0.30 ± 0.04 mg/dL and the Glucose (Balb/C mice; 3000 mg/kg b.w. oral) was 85.34 ± 2.01 mg/dL. For the same molecule, the “Total Cholesterol” value (Balb/C mice; 3000 mg/kg b.w. oral) was 103.09 ± 1.83 mg/dL, the Triglyceride (Balb/C mice; 3000 mg/kg b.w. oral) was 96.50 ± 2.05 mg/dL and the “Kidney Weight” value (Balb/C mice; 3000 mg/kg b.w. oral) was 0.30 ± 0.19 g. The “Liver Weight” value (Balb/C mice; 3000 mg/kg b.w. oral) was 1.23 ± 0.25 g, the “Total Weight” value (Balb/C mice; 3000 mg/kg b.w. oral) was 22.65 ± 1.91 g and the GSH ([5]; 7.5 mg/kg b.w.) was 37.28 ± 1.60 μg/mg of Protein. For the same molecule, the MDA ([5]; 7.5 mg/kg b.w.) was 14.98 ± 1.22 nmol/mg Protein, the CAT [5, 7] was 24.18 ± 1.41 U/mg of Protein and the SOD [5, 7] was 9.88 ± 1.49 U/mg of Protein. The GSH ([5]; 15 mg/kg b.w.) was 39.01 ± 1.39 μg/mg of Protein, the MDA ([5]; 15 mg/kg b.w.) was 14.48 ± 1.38 nmol/mg Protein and the CAT ([5]; 15 mg/kg b.w., n = 8, 15 mg/kg) was 24.91 ± 1.29 U/mg of Protein. The SOD ([5]; 15 mg/kg b.w., n = 8, 15 mg/kg) was 10.20 ± 1.62 U/mg of Protein, the “level of AChE” value ([6]; 7.5 mg/kg b.w.) was 15.34 ± 0.69 and the “level of AChE” value ([6]; 15 mg/kg b.w.) was 14.67 ± 0.67.
